Measured values taken from patent US20090137577A1, “HETEROCYCLIC COMPOUNDS” (Pfizer Inc., priority 2007, published 2009).
pEC50: −log10 of the molar value.

The compounds below were run against T1, mGluR2 receptor (metabotropic glutamate receptor 2) (Homo sapiens, UniProt Q14416) (assay: mGluR2 potentiator screen (FLIPR, EC10-EC20 glutamate challenge)). Conditions: geometric mean; read-out: mGluR 2 EC50 (geometric mean).
T1 construct: expressed in transfected cells
Assay type: cell-based
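Also: HEK cells stably expressing human mGluR2 with GL15 G protein, Fluo-4 calcium fluorescence read on FLIPR, compounds added before an EC10-EC20 glutamate challenge to detect potentiation.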

T1 sequence (Q14416 19-872, species assumed): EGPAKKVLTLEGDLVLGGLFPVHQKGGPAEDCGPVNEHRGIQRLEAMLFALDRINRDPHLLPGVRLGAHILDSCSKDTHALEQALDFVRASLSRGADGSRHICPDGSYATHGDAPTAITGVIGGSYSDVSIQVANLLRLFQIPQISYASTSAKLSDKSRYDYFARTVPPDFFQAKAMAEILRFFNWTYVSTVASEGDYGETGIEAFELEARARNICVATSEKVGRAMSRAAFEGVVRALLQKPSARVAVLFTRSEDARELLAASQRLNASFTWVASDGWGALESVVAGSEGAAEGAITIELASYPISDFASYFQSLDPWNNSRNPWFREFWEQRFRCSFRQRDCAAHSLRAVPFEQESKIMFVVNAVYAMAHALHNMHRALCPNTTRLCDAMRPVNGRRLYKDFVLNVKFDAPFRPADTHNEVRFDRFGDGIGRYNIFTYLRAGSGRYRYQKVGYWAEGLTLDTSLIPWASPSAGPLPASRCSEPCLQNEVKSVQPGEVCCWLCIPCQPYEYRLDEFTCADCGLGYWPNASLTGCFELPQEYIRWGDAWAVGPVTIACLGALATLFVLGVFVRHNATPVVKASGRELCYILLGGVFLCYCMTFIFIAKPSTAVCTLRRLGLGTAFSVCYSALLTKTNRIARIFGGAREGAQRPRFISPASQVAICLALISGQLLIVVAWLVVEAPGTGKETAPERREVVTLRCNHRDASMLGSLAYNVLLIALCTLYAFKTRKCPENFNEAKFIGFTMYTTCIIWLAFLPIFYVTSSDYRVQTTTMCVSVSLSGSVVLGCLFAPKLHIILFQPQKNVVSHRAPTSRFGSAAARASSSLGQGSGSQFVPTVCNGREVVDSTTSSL

| SMILES | pEC50 |
| --- | --- |
| CCOc1ccc(COc2ccc(CN3CC(C)OC3=O)cc2)cc1 (stereo not shown) [Example 119] | 6.79 |
| CC1(C)COC(=O)N(Cc2ccc(OCC3CCC3)cc2)C1 [Example 15] | 6.03 |
| C[C@@H]1CN(Cc2ccc(-c3cccc4cnccc34)cc2)C(=O)O1 [Example 162] | 7.38 |
| C[C@@H]1CN(Cc2ccc(-c3ccc(C(F)(F)F)cc3Cl)nc2)C(=O)O1 [Example 268] | 6.99 |
| CC[C@](COc1ccc(CN2CC(C)OC2=O)cc1)(c1ccccc1)N(C)C (stereo partly shown) [Example 145] | 5.87 |
| C[C@@H]1CN(Cc2cnc(-c3cccc(F)c3F)c(F)c2)C(=O)O1 [Example 298, (5R)-3-{[6-(2,3-Difluorophenyl)-5-fluoropyridin-3-yl]methyl}-5-methyl-1,3-oxazolidin-2-one] | 5.87 |
| O=C1OC(c2ccccc2)CN1Cc1ccc(OCc2ccccc2)cc1 (stereo not shown) [Example 8] | 6.82 |
| O=C1OCCN1Cc1ccc(OCCC2CCCCC2)cc1 [Example 11] | 6.16 |
| C[C@@H]1CN(Cc2ccc(-c3cccc(C#N)c3)cc2)C(=O)O1 [Example 85] | 6.30 |
| CC1CN(Cc2ccc(OC3Cc4ccccc4C3)cc2)C(=O)O1 (stereo not shown) [Example 126] | 7.08 |
| O=C1OCCCN1Cc1ccc(OCc2ccccc2)cc1 [Example 31] | 5.90 |
| CC1CN(Cc2ccc(OCCCc3ccccc3)cc2)C(=O)O1 (stereo not shown) [Example 104] | 7.42 |
| COc1ccccc1COc1ccc(CN2CC(C)OC2=O)cc1 (stereo not shown) [Example 118] | 7.05 |
| Cc1ccc(CN2CCN(Cc3ccc(OC(C)C4CCCCC4)cc3)C(=O)C2)cc1 (stereo not shown) [Example 216] | 6.33 |
| COc1ccc(Cl)cc1-c1ccc(CN2C[C@@H](C)OC2=O)cc1 [Example 196] | 7.31 |
| C[C@@H]1CN(Cc2ccc(CCc3ccccc3)cc2)C(=O)O1 [Example 318, (5R)-5-methyl-3-[4-(2-phenylethyl)benzyl]-1,3-oxazolidin-2-one] | 6.95 |
| Cc1ccc(F)c(COc2ccc(CN3CC(C)OC3=O)cc2)c1 (stereo not shown) [Example 150] | 7.00 |
| C[C@H](Oc1ccc(CN2C[C@H](C)OC2=O)cc1)c1ccccc1 [Example 70] | 6.68 |
| C[C@@H]1CN(Cc2ccc(OCCCOc3ccc(F)cc3)cc2)C(=O)O1 [Example 206] | 7.52 |
| COc1ccc(-c2ccc(CN3C[C@@H](C)OC3=O)cc2F)cn1 [Example 295] | 6.09 |

| SMILES | pEC50 |
| --- | --- |
| CC(C)Oc1ccc(-c2ccc(CN3C[C@@H](C)OC3=O)cn2)c(Cl)c1 [Example 278] | 6.79 |
| C[C@@H]1CN(Cc2ccc(-c3c(F)cccc3F)cc2)C(=O)O1 [Example 247] | 6.68 |
| Cc1cc(CN2C[C@@H](C)OC2=O)cc(C)c1OCc1ccccc1 [Example 184] | 6.02 |
| CC1CN(Cc2ccc(OCc3ccccc3Cl)cc2)C(=O)O1 (stereo not shown) [Example 117] | 7.46 |
| COc1cc(F)ccc1-c1ccc(CN2C[C@@H](C)OC2=O)cc1 [Example 239] | > 6.98 |
| C[C@@H]1CN(Cc2ccc(O[C@H](C)c3ccccc3)cc2)C(=O)O1 [Example 67, (5R)-5-methyl-3-{4-[(1R)-1-phenylethoxy]benzyl}-1,3-oxazolidin-2-one] | 6.62 |
| C[C@@H]1CN(Cc2ccc(-c3ccccc3OC(F)(F)F)cc2)C(=O)O1 [Example 164] | > 8.14 |
| CC1CN(Cc2ccc(OCCc3ccccc3)cc2)C(=O)O1 (stereo not shown) [Example 102] | 6.55 |
| Cc1ccc(F)cc1-c1ccc(CN2C[C@@H](C)OC2=O)cc1 [Example 248] | 7.27 |
| C[C@@H]1CN(Cc2ccc(-c3cc(F)cc(F)c3)cc2)C(=O)O1 [Example 246] | 6.35 |
| CC1(C)COC(=O)N(Cc2ccc(OC3CCCCC3)cc2)C1 [Example 43] | 6.47 |
| CC1CCCC1N1CCN(Cc2ccc(OC(C)C3CCCCC3)cc2)C(=O)C1 (stereo not shown) [Example 225] | 6.20 |
| CCOC(=O)c1ccccc1-c1ccc(CN2C[C@@H](C)OC2=O)cc1 [Example 197] | 5.74 |
| CCN(C)CC1CN(Cc2ccc(-c3ccc(F)cc3F)cc2)C(=O)O1 (stereo not shown) [Example 304, 3-[(2′,4′-difluorobiphenyl-4-yl)methyl]-5-{[ethyl(methyl)amino]methyl}-1,3-oxazolidin-2-one] | 6.24 |
| C[C@@H]1CN(Cc2ccc(-c3ccc(F)cc3F)cc2F)C(=O)O1 [Example 249, (5R)-5-methyl-3-[(2′,3,4′-trifluorobiphenyl-4-yl)methyl]-1,3-oxazolidin-2-one] | > 7.55 |
| CCOc1ccccc1COc1ccc(CN2CC(C)OC2=O)cc1 (stereo not shown) [Example 114] | 7.59 |
| CC1CN(Cc2ccc(OCCCOc3ccc(F)cc3)cc2)C(=O)O1 (stereo not shown) [Example 152] | 7.34 |
| CC1CN(Cc2ccc(OCc3ccc(Cl)cc3F)cc2)C(=O)O1 (stereo not shown) [Example 88] | 7.18 |
| C[C@@H]1CN(Cc2ccc(OCc3ccc(C(F)(F)F)cc3F)c(F)c2)C(=O)O1 [Example 228, (5R)-3-(3-fluoro-4-{[2-fluoro-4-(trifluoromethyl)benzyl]oxy}benzyl)-5-methyl-1,3-oxazolidin-2-one] | 6.06 |
| C[C@@H]1CN(Cc2ccc(OCC3CCCCC3)c(Cl)c2)C(=O)O1 [Example 286, (5R)-3-[3-chloro-4-(cyclohexylmethoxy)benzyl]-5-methyl-1,3-oxazolidin-2-one] | 7.49 |
